# Laboratory results from US10822325B2, “Human GLUT5 specific inhibitors and methods of treatment” (UNM RAINFOREST INNOVATIONS, priority 2015, dated 2020).
# “Also recorded” adds a separate entry of the source.
# Tests used:
# [1] = target: T1, GLUT5H387F (Homo sapiens, UniProt P22732, H387F); test: Fructose entrance counter-flow transport in GLUT5H387F mutant proteoliposomes; type: biochemical; conditions: 2 mM compound
# T1 construct: Full length DNA was subcloned into pFastBac1 (Life Technologies) vector with a N-terminal hexahistidine tag; hexahistidine (N); made in house; host or cells: Sf21 insect cells (baculovirus, pFastBac1)
# T1 sequence (P22732 1-501 H387F): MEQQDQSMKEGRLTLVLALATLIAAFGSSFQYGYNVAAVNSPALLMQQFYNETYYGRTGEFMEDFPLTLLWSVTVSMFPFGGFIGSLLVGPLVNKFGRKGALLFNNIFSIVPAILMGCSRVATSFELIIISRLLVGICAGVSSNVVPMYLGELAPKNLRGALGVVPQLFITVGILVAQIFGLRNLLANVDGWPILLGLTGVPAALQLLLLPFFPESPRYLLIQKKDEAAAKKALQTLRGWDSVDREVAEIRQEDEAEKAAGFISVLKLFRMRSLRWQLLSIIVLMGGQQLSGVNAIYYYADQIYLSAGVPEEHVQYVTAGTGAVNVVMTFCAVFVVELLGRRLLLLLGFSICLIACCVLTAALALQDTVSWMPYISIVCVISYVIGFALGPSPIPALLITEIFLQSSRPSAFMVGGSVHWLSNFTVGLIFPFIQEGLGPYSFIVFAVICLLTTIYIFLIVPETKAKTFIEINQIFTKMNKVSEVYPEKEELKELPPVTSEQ
# Procedure: (§1) cDNAs of GLUT1, 3, 4 and 5 were purchased from Open Biosystems (GE Healthcare). cDNAs of GLUT2 was a gift from Prof. Graeme Bell at University of Chicago. Full length DNA was subcloned into pFastBac1 (Life Technologies) vector with a N-terminal hexahistidine tag. Bacmids were generated in DH10Bac E. coli cells (Life Technologies). Baculoviruses were produced using Cellfectin II Reagent and amplified in Sf21 insect cells (Life Technologies). Cells were maintained at 26° C., and P1 (10^6 pfu/mL) was collected from infected cells after 72 hours. SF21 cells were propagated in HyClone SFX-Insect media (GE Healthcare), supplemented with 5% fetal bovine serum (Biowest), 4.8 mM glutamine, antibiotics (100 units/mL Penicillin G and 100 μg/mL streptomycin sulfate) and amphotericin B (2.5 μg/mL). […]
# (§2) For the entrance counterflow transport in proteoliposomes, the assay was started by the addition of 5 μL proteoliposomes solution (OD600 nm ˜30) to 200 μL, assay solution, containing 10 μM ^14C-radiolabeled glucose (for GLUT1 wild-type or F379H mutant and GLUT2-4) or fructose (for GLUT5 wild-type or H387F mutant and GLUT2) (Moravek Biochemicals) in 100 mM KPi buffer at pH 7.5. After one minute (or different specified time points when the time-dependent counter-flow transport activity was measured), the transport was stopped with ice-chilled quench buffer [0.1 M KPi (pH 5.5) and 0.1 M lithium chloride]. […]
# [2] = target: T2, human GLUT4 (Homo sapiens, UniProt P14672); test: Glucose entrance counter-flow transport in GLUT4 proteoliposomes; type: biochemical; conditions: 2 mM compound
# T2 construct: Full length DNA was subcloned into pFastBac1 (Life Technologies) vector with a N-terminal hexahistidine tag; hexahistidine (N); made in house; host or cells: Sf21 insect cells (baculovirus, pFastBac1)
# T2 sequence (P14672 1-509): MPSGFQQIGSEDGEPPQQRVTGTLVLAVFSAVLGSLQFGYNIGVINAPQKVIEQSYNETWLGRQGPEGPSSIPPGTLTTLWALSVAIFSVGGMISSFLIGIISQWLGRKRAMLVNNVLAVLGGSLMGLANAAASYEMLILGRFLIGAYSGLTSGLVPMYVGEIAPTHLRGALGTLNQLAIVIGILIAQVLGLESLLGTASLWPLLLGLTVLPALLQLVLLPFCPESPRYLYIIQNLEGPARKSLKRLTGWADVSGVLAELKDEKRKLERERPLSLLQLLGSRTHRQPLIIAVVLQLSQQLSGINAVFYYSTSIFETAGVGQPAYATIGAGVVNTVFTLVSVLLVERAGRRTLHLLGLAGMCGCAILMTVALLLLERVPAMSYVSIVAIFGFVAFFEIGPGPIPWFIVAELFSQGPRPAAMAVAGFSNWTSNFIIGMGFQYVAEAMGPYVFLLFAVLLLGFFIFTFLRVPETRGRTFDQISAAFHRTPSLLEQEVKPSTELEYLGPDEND
# Procedure: as §1, §2
structure (smiles),measurement,setting,value
"CS(=O)(=O)c1ccc(Nc2ccc3c(c2)OCO3)c([N+](=O)[O-])c1 [MSNBA, N-[4-(methylsulfonyl)-2-nitrophenyl]-1,3-benzodioxol-5-amine]",activity retained by GLUT5H387F,[1],93%
same,effect on GLUT5H387F fructose transport,[1],largely unaffected; also recorded: almost unsusceptible
same,effect on GLUT4 glucose transport,[2],did not affect; also recorded: did not influence
